The values below come from patent US11066414B2, “Cot modulators and methods of use thereof” (Gilead Sciences, Inc., priority 2015, dated 2021).

Where two headings read alike, the source gives them in different places. Where only a bound is given, the exact number is not on record here.

In one assay the test system is TNFα. The assay is described as follows: Cot Monocyte TNFα Cell Based Assay.
In the next assay the target is Human Cot (Homo sapiens (Human), UniProt P41279). The assay is described as follows: High Throughput Cot Biochemical Assay.
Setting [1] is: Homo sapiens, Monocyte, read-out: EC50 TNF, LPS-stimulated human monocytes, TNFα.
Setting [2] is: IC50 HTRF, Cot HTRF (TR-FRET) biochemical assay.
The mark [3] stands for this setting: read-out: EC50 TNF, LPS-stimulated human monocytes, TNFα.
[4] abbreviates: read-out: IC50 HTRF, Cot HTRF (TR-FRET) biochemical assay.
[5] abbreviates: Homo sapiens, Monocyte, read-out: EC50 TNF, LPS-stimulated human monocytes, TNFα TR-FRET.
[6] abbreviates: IC50 HTRF, Cot HTRF (TR-FRET KinEASE) biochemical assay, 400 μM ATP.

Sequence of Human Cot (P41279 30-397): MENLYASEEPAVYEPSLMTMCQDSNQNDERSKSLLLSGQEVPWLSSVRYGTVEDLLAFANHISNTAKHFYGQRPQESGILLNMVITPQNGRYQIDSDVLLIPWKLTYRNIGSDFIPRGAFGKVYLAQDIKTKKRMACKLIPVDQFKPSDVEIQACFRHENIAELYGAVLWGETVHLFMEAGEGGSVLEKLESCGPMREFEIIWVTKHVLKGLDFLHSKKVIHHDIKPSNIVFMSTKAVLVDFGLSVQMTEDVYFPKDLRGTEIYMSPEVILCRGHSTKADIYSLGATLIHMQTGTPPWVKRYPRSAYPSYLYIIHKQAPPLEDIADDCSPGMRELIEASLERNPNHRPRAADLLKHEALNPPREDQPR

As a reminder, the EC50 is the concentration that produces a half-maximal response. Usually IC50 stands for the concentration at which inhibition is half-maximal. Take `C[C@@H](CF)n1cc([C@@H](Nc2cc(Cl)c3ncc(C#N)c(Nc4cnc(F)c(F)c4)c3c2)c2cccnc2)nn1` [Example 197, 8-chloro-4-((5,6-difluoropyridin-3-yl)amino)-6-(((S)-(1-((S)-1-fluoropropan-2-yl)-1H-1,2,3-triazol-4-yl)(pyridin-3-yl)methyl)amino)quinoline-3-carbonitrile]: in the assay with TNFα (setting [1]), the EC50 is 599 nM. Also, the midpoint of inhibition at Human Cot (setting [2]), the IC50, lay at 9 nM.

`[2H][C@](Nc1cc(Cl)c2ncc(C#N)c(Nc3cnc(F)c(F)c3)c2c1)(c1cccnc1)c1cn(-c2ccccc2)nn1` [Example 162, (S)-8-chloro-4-((5,6-difluoropyridin-3-yl)amino)-6-(((1-phenyl-1H-1,2,3-triazol-4-yl)(pyridin-3-yl)methyl-d)amino)quinoline-3-carbonitrile]: in the assay with TNFα (setting [1]), the EC50 is 429 nM. At Human Cot (setting [2]), this compound gave an IC50 of 7 nM.

Turning to `N#Cc1cnc2c(Cl)cc(N[C@H](c3c[nH]nn3)c3cncs3)cc2c1Nc1ccc(F)c(Cl)c1` [Example 277, (R)-B-chloro-4-((3-chloro-4-fluorophenyl)amino)-6-((thiazol-5-yl(1H-1,2,3-triazol-4-yl)methyl)amino)quinoline-3-carbonitrile], in the assay on TNFα (setting [3]), the concentration for a half-maximal effect (EC50) turned out to be 923 nM. Further, the IC50 at Human Cot (setting [4]) was determined as 7 nM.

On to `Cc1nc(F)ccc1[C@H](Nc1cc(-c2cncnc2)c2ncc(C#N)c(NCC(C)(C)C)c2c1)c1cn(C2(C(F)F)CC2)nn1` [Example 976], for which the concentration for a half-maximal effect (EC50) with TNFα (read-out: EC50 TNF, LPS-stimulated human monocytes, TNFα TR-FRET) is 276 nM. The IC50 at Human Cot (read-out: IC50 HTRF, Cot HTRF (TR-FRET KinEASE) biochemical assay, 400 μM ATP) was 21 nM.

`CC(C)(C)CNc1c(C#N)cnc2c(C#N)cc(N[C@H](c3cn(C4(C(F)(F)F)CC4)nn3)c3cccc4c(=O)[nH]ccc34)cc12` [Example 700, (S)-4-(neopentylamino)-6-(((1-oxo-1,2-dihydroisoquinolin-5-yl)(4-(1-1-(trifluoromethyl)-cyclopropyl)-1H-1,2,3-triazol-4-yl)methyl)amino)quinoline-3,8-dicarbonitrile]: the EC50 in the assay with TNFα (setting [3]) came out at 179 nM. The half-maximal inhibitory concentration (IC50) on Human Cot (setting [4]) stood at 2 nM.

Consider `Cc1nc(F)ccc1[C@H](Nc1cc(Cl)c2ncc(C#N)c(NCC(C)(C)C)c2c1)c1cn(C2(C(N)=O)CC2)nn1` [Example 477, (S)-1-(4-(((8-chloro-3-cyano-4-(neopentylamino)quinolin-6-yl)amino)(6-fluoro-2-methylpyridin-3-yl)methyl)-1H-1,2,3-triazol-1-yl)cyclopropane-1-carboxamide], for which the EC50 in the assay with TNFα (setting [1]) is 185 nM. This compound gave an IC50 on Human Cot (setting [2]) of 2 nM.

On to `CC(C)(C)CNc1c(C#N)cnc2c(C#N)cc(N[C@H](c3cn([C@@H]4C[C@@H]4F)nn3)c3cccc4ncccc34)cc12` [Example 899, 6-(((S)-(1-((1R,2S)-2-fluorocyclopropyl)-1H-1,2,3-triazol-4-yl)(quinolin-5-yl)methyl)amino)-4-(neopentylamino)quinoline-3,8-dicarbonitrile], for which the EC50 in the assay with TNFα (setting [5]) came out at 29 nM. Besides, at Human Cot (setting [6]), the IC50 turned out to be 2 nM.

With `Cn1ncc2cccc([C@H](Nc3cc(C#N)c4ncc(C#N)c(NCC(C)(C)C)c4c3)c3cn(C4(C(F)F)CC4)nn3)c21` [Example 605], the EC50 in the assay on TNFα (setting [3]) is 30 nM. The half-inhibitory concentration (IC50) at Human Cot (setting [4]) came to 3 nM.

Take `N#Cc1cnc2c(Cl)cc(N[C@@H](c3cccnc3)c3cn(CCN4CCCCC4)nn3)cc2c1Nc1ccc(F)c(Cl)c1` [Example 334, (S)-8-chloro-4-((3-chloro-4-fluorophenyl)amino)-6-(((1-(2-(piperidin-1-yl)ethyl)-1H-1,2,3-triazol-4-yl)(pyridin-3-yl)methyl)-amino)quinoline-3-carbonitrile]: the EC50 in the assay with TNFα (setting [1]) was 82 nM. This compound had an IC50 at Human Cot (setting [2]) of 4 nM.

Turning to `Cc1ncccc1[C@H](Nc1cc(Cl)c2ncc(C#N)c(N[C@H](C)c3ccccc3)c2c1)c1cn(C2COC2)nn1` [Example 171, 8-chloro-6-(((S)-(2-methylpyridin-3-yl)(1-(oxetan-3-yl)-1H-1,2,3-triazol-4-yl)methyl)amino)-4-(((R)-1-phenylethyl)amino)quinoline-3-carbonitrile], the EC50 with TNFα (setting [1]) was 320 nM. On Human Cot (setting [2]), this compound had a concentration for half-maximal inhibition (IC50) of 10 nM.

In the case of `CC[C@@H](Nc1c(C#N)cnc2c(Cl)cc(N[C@@H](c3cccnc3)c3cn(C(C)(C)C)nn3)cc12)c1ccccc1` [Example 192, 6-(((S)-(1-(tert-butyl)-1H-1,2,3-triazol-4-yl)(pyridin-3-yl)methyl)amino)-8-chloro-4-(((R)-1-phenylpropyl)arnino)quinoline-3-carbonitrile], the concentration for a half-maximal effect (EC50) in the assay with TNFα (setting [3]) stood at 186 nM. Also, the 50% inhibitory concentration (IC50) on Human Cot (setting [4]) is 3 nM.

Regarding `N#Cc1cnc2c(Cl)cc(N[C@@H](c3cccnc3)c3cn(CCN4CCOCC4)nn3)cc2c1Nc1ccc(F)c(Cl)c1` [Example 335, (S)-8-chloro-4-((3-chloro-4-fluorophenyl)amino)-6-(((1-(2-morpholinoethyl)-1H-1,2,3-triazol-4-yl)(pyridin-3-yl)methyl)amino)-quinoiine-3-carbonitrile], in the assay on TNFα (setting [3]), the EC50 is 405 nM. The IC50 at Human Cot (setting [4]) worked out at 10 nM.

Take `CC(=O)c1cc(N[C@H](c2cn(C3(C(F)F)CC3)nn2)c2ccc(F)nc2C)cc2c(NCC(C)(C)C)c(C#N)cnc12` [Example 981, (S)-8-acetyl-6-(((1-(1-(difluoromethyl)cyclopropyl)-1H-1,2,3-triazol-4-yl)(6-fluoro-2-methylpyridin-3-yl)methyl)amino)-4-(neopentylamino)quinoline-3-carbonitrile]: the EC50 in the assay with TNFα (setting [5]) is 20 nM. This compound also registered an IC50 at Human Cot (setting [6]) of 4 nM.

Consider `Cn1cc([C@@H](Nc2cc(Cl)c3ncc(C#N)c(NCC(C)(C)C)c3c2)c2cccc3c(=O)n(C)ccc23)nn1` [Example 790, (S)-8-chloro-6-(((2-methyl-1-oxo-1,2-dihydroisoquinolin-5-yl)(1-methyl-1H-1,2,3-triazol-4-yl)methyl)amino)-4-(neopentylamino)quinoline-3-carbonitrile], for which the EC50 in the assay on TNFα (setting [1]) amounted to 82 nM. In addition, on Human Cot (setting [2]), the concentration for half-maximal inhibition (IC50) was 5 nM.

Regarding `CC(C)(C)CNc1c(C#N)cnc2c(C#N)cc(N[C@H](c3cn(C4(C)CC4)nn3)c3cccc4ncccc34)cc12` [Example 578, (S)-6-(((1-(1-methylcyclopropyl)-1H-1,2,3-triazol-4-yl)(quinolin-5-yl)methyl)amino)-4-(neopentylamino)quinoline-3,8-dicarbonitrile], in the assay with TNFα (setting [1]), the EC50 is 32 nM. It took 2 nM to reach half-maximal inhibition at Human Cot (setting [2]) (IC50).

Turning to `CC(C)(C)CNc1c(C#N)cnc2c(C#N)cc(N[C@H](c3cn(C4(C(F)(F)F)CC4)nn3)c3cccc4c3CNC4)cc12` [Example 451, (S)-6-((isoindolin-4-yl(1-(1-(trifluoro-methyl)cyclopropyl)-1H-1,2,3-triazol-4-yl)methyl)amino)-4-(neopentylamino)-quinoline-3,8-dicarbonitrile], in the assay on TNFα (setting [1]), the concentration giving a half-maximal response (EC50) was 138 nM. Besides, inhibition against Human Cot (setting [2]) was half-maximal at 3 nM (IC50).

Take `[2H]C(Nc1cc(Cl)c2ncc(C#N)c(N[C@H](CCC#N)c3ccccc3)c2c1)(c1ccc(F)nc1)c1cn(C2CC2)nn1` (stereo partly drawn) [Example 89, 8-chloro-4-(((R)-3-cyano-1-phenylpropyl)amino)-6-(((1-cyclopropyl-1H-1,2,3-triazol-4-yl)(6-fluoropyridin-3-yl)methyl-d)amino)quinoline-3-carbonitrile]: the EC50 in the assay with TNFα (setting [1]) is more than 1000 nM. For the same compound, at Human Cot (setting [2]), half-maximal inhibition (IC50) was put at 520 nM.

In the case of `CC(C)(C)CNc1c(C#N)cnc2c(Cl)cc(N[C@H](c3cn(C4(C(F)F)CC4)nn3)c3cccc4ccncc34)cc12` [Example 537, (S)-8-chloro-6-(((1-(1-(difluoromethyl)-cyclopropyl)-1H-1,2,3-triazol-4-yl)(isoquinolin-8-yl)methyl)amino)-4-(neopentylamino)quinoline-3-carbonitrile], the EC50 in the assay with TNFα (setting [1]) came out at 75 nM. The IC50 on Human Cot (setting [2]) was found to be 2 nM.
